From patent US8329675B2, “Inhibitors of fatty acid amide hydrolase” (Infinity Pharmaceuticals, Inc., priority 2006, dated 2012)
Where two headings read alike, the source gives them in different places.

Target: T1, human FAAH (Homo sapiens, UniProt O00519)
T1 construct: host or cells: COS-7 cells, transient transfection; 13,000 g membrane fraction solubilised in 1% Triton X-100
T1 sequence (O00519 1-579): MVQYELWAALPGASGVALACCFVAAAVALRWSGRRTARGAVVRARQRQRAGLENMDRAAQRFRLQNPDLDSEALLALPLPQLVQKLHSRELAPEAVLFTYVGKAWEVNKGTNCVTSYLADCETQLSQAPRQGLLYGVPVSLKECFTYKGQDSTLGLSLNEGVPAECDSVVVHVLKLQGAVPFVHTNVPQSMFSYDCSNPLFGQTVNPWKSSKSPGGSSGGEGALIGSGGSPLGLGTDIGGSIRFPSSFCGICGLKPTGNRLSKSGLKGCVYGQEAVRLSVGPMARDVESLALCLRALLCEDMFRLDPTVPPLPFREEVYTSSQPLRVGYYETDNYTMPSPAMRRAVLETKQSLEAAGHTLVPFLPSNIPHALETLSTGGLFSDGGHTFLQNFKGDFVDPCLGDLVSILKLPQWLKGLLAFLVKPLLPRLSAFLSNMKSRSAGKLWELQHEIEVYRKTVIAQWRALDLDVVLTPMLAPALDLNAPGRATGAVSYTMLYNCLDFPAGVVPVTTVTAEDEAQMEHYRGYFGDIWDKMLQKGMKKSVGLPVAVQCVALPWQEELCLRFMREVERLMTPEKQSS
Test: Human FAAH biochemical inhibition assay (AMC arachidonoyl amide fluorescence)
Conditions: read-out: Activity (Ki)
Procedure: The resulting solution is added into one dish of 30-40% confluent COS-7 cells in a drop-wise manner. The COS-7 cell dish is subsequently incubated for 48 hours. The cells are then harvested.
Harvest procedure: Media was aspirated from the dishes and the cells rinsed with 10 mL PBS. The PBS was removed and 3 mLs of PBS added to the dish. The dish was scraped to resuspend the cells, and the subsequent cell suspension collected into a 15 ml conical tube. The cells were pelleted by centrifugation at 1200 rpm for 5 minutes in a bench top centrifuge. PBS was removed and the cell pellet snap frozen in liquid nitrogen, store at −80 C.
The pellets were dounce homogenized and then sonicated to produce cell extract. The cell extract was subsequently centrifuged at 1000 g to remove cellular debris. The pellet was discarded and the supernatant centrifuged at 13,000 g for 20 minutes. The pellet contained membrane bound FAAH. The supernatant was discarded and the pellet resolubilized.
(2) Re-solubilization: The fraction of interest, (13,000 g, membrane fraction) was re-suspended in re-suspension buffer (20 mM Hepes pH 7.8, 10% v/v Glycerol, 1 mM EDTA, 1% Triton X-100) (2.3 mL re-suspension and the sample incubated on ice for 1 hour and then centrifuged to at 13,000 g remove any particulate matter. The supernatant containing solubilized human FAAH was aliquoted and snap frozen in liquid nitrogen and stored at −80° C. until use.
FAAH reaction buffer: 50 mM Hepes (pH 7.5), 1 mM EDTA, 0.2% Triton X-100.
Human FAAH assay; Experimental Protocol: A 0.1 mg/mL Human FAAH solution is made up in FAAH reaction buffer, and 24 ul pipetted into a 384 well plate. To this is added 1 uL of a 3 fold serially diluted inhibitor from a DMSO stock solution. The FAAH solution and inhibitor are incubated for 30 minutes at room temperature. The FAAH reaction is initiated by the addition of 25 uL of 40 uM AMC Arachidonoyl Amide in FAAH reaction buffer, yielding a final reaction human FAAH preparation concentration of 0.05 mg/ml and AMC-Arachidonoyl substrate concentration of 20 uM, reaction volume 50 uL. The reaction is allowed to proceed for 4 hours at room temperature. […] The microtiter plate in read in the envision plate reader.

[1] = Table 2, human FAAH (no asterisk)
[2] = Table 1, human FAAH (no asterisk)

Row | SMILES | Ki [1] [nM] | Ki [2] [nM]
1 | CN(C)c1cc(Oc2ccc(B(O)O)cc2)cc(Oc2cccc3ccccc23)c1 [II-173] | > 1000 | 
2 | Cc1cc(NCc2ccc(B3OC(C)(C)C(C)(C)O3)cc2)ccc1F [II-187] | 10 to 100 | 
3 | OB(O)c1ccc(Oc2ccc(Cl)c(Cl)c2)cc1 [II-259] | < 10 | 
4 | CCCCCC(=O)Nc1cccc(CCOc2ccc(B(O)O)c(F)c2)c1 [II-21] | < 10 | 
5 | OB(O)c1ccc2cc[nH]c2c1 [Compound I-101] |  | > 1000
6 | OB(O)c1ccc(OCCc2ccccn2)cc1F [II-6] | < 10 | 
7 | OB(O)c1cccc2c1oc1ccccc12 [Compound I-4] |  | 10 to 1000
8 | OB(O)c1ccc(CCCc2ccccc2)cc1 [II-68] | < 10 | 
9 | OB(O)c1ccc(COC2CCc3ccccc32)cc1 (stereo not drawn) [II-124] | < 10 | 
10 | OB(O)c1ccc(OCc2ccc(F)cc2)c(Cl)c1 [Compound I-152] |  | < 10
11 | Nc1cc(Oc2cccc(F)c2)ccc1B(O)O [II-162] | > 1000 | 
12 | COc1cccc(B(O)O)c1 [Compound I-76] |  | > 1000
13 | OB(O)c1ccc(-c2nc3ccccc3s2)cc1 [II-36] | > 1000 | 
14 | OB(O)c1ccc(Cn2ccc3ccccc32)cc1 [II-145] | < 10 | 
15 | CCOc1ccc(Oc2ccc(B(O)O)cc2)cc1F [II-251] | < 10 | 
16 | OB(O)c1ccc(OC2CCCCC2)cc1 [II-237] | < 10 | 
17 | OB(O)c1ccc(CN2CCc3ccccc32)cc1 [II-142] | < 10 | 
18 | CC(C)(C)OC(=O)n1c(B(O)O)cc2c(OCc3ccccc3)cccc21 [Compound I-115] |  | > 1000
19 | OB(O)c1ccc(OCCc2ccc(C(F)(F)F)cc2)cc1F [II-52] | < 10 | 
20 | OB(O)c1cc(F)cc(Br)c1 [Compound I-26] |  | 10 to 100
21 | OB(O)c1ccc(Oc2cccnc2)cc1 [II-293] | < 10 | 
22 | OB(O)c1ccc(COC2CCCCC2)cc1 [II-127] | < 10 | 
23 | COC(=O)c1ccc(Oc2ccc(B(O)O)cc2)cc1 [II-284] | < 10 | 

Row | SMILES | Ki [1] [nM] | Ki [2] [nM]
24 | O=C(OCc1ccccc1)c1cc(Oc2cccc(F)c2)ccc1B(O)O [II-151] | 10 to 1000 | 
25 | OB(O)c1cnn(Cc2ccccc2)c1 [II-302] | > 1000 | 
26 | O=C(CCc1ccccc1)c1ccc(B(O)O)cc1 [II-9] | < 10 | 
27 | CNc1cccc(Oc2ccc(B(O)O)c(F)c2)c1 [II-200] | < 10 | 
28 | CC(Oc1ccc(B(O)O)cc1)c1ccccc1 (stereo not drawn) [II-238] | 10 to 100 | 
29 | Nc1ccc(CCOc2ccc(B(O)O)c(F)c2)cc1 [II-35] | < 10 | 
30 | CN(Cc1ccc(B(O)O)c2ccccc12)c1ccccc1 [II-112] | > 1000 | 
31 | CN(C)CCN(Cc1ccccc1)C(=O)C(Oc1ccc(B(O)O)cc1)c1ccccc1 (stereo not drawn) [II-214] | > 1000 | 
32 | OB(O)c1ccc(C2CCCCC2)cc1 [Compound I-162] |  | < 10
33 | Cc1ccc(Oc2ccc(B(O)O)cc2)cc1Cl [II-276] | < 10 | 
34 | OB(O)c1ccc(COCc2cccc(C(F)(F)F)c2)cc1F [II-72] | < 10 | 
35 | CC(C)(C)OC(=O)Nc1cccc(Oc2ccc(B(O)O)cc2)c1 [II-289] | 10 to 100 | 
36 | N#Cc1cc(Oc2cccc(F)c2)ccc1B(O)O [II-203] | < 10 | 
37 | CC1(C)OB(c2ccc(OCCc3ccccc3)cc2)OC1(C)C [II-168] | 10 to 100 | 
38 | OB(O)c1cccc(OC(F)(F)F)c1 [Compound I-45] |  | 10 to 1000
39 | COc1c(Br)cc(F)cc1B(O)O [Compound I-10] |  | 10 to 100
40 | OB(O)c1ccc(OCCc2ccccc2)c(Cl)c1 [II-57] | < 10 | 
41 | Cc1ccc(F)c(COc2ccc(B(O)O)cc2)c1Cl [II-266] | 10 to 100 | 
42 | OB(c1ccccc1)c1ccc(Oc2ccccc2)cc1 [II-66] | 10 to 100 | 
43 | Cc1cccc(Oc2ccc(B(O)O)cc2)c1 [II-281] | < 10 | 
44 | CCOc1ccc(CCOc2ccc(B(O)O)c(F)c2)cc1 [II-50] | < 10 | 
45 | OB(O)c1ccc(-c2ccc(F)cc2)cc1F [II-306] | < 10 | 
46 | CCCCOc1ccc(Oc2ccc(B(O)O)cc2)cc1F [II-271] | < 10 | 

Row | SMILES | Ki [1] [nM] | Ki [2] [nM]
47 | OB(O)c1ccccc1F [Compound I-105] |  | 10 to 1000
48 | OB(O)c1ccc(CCOc2ccccc2)cc1 [II-117] | 10 to 100 | 
49 | COc1ccc(CNS(=O)(=O)c2ccc(B(O)O)cc2)cc1 [Compound I-120] |  | 10 to 100
50 | Cc1ccc(-c2ccc(B(O)O)c(F)c2)cc1F [II-3] | < 10 | 
51 | COc1ccc(Oc2cc(Oc3ccc(B(O)O)cc3)cc(N(C)C)c2)cc1 [II-192] | 10 to 100 | 
52 | OB(O)c1ccc(Oc2cc(F)cc(F)c2)cc1 [II-260] | < 10 | 
53 | OB(O)c1ccc(OCCCCc2ccccc2)cc1 [II-165] | 10 to 100 | 
54 | O=C1c2ccc(B(O)O)cc2CC1Cc1ccccc1 (stereo not drawn) [II-29] | < 10 | 
55 | O=C(Cc1ccccc1)Nc1ccc(B(O)O)cc1 [II-248] | 10 to 100 | 
56 | OB(O)c1ccc2oc(COc3ccccc3)cc2c1 [II-104] | < 10 | 
57 | OB(O)c1ccc(COCc2ccc(C(F)(F)F)cc2)cc1F [II-71] | < 10 | 
58 | O=Cc1ccc(B(O)O)c2ccccc12 [Compound I-104] |  | 10 to 1000
59 | OB(O)c1cnc2ccccc2c1 [Compound I-65] |  | > 1000
60 | OB(O)c1ccccc1Cl [Compound I-39] |  | 10 to 1000
61 | OB(O)c1ccccc1OCc1ccccc1 [Compound I-182] |  | > 1000
62 | CN(C)C(=O)c1ccc(Oc2ccc(B(O)O)cc2)cc1 [II-227] | 10 to 100 | 
63 | OB(O)c1ccncc1 [Compound I-90] |  | > 1000
64 | OB(O)c1ccc(OCc2ccccc2)cc1F [Compound I-146] |  | < 10
65 | O=C(c1ccccc1)c1cc2cc(B(O)O)ccc2o1 [II-15] | 10 to 100 | 
66 | Cc1ccc(C)n1-c1ccc(B(O)O)cc1 [II-32] | > 1000 | 
67 | CN(Cc1ccccc1)[C@@H](COc1ccc(B(O)O)c(F)c1)Cc1ccccc1 [II-106] | 10 to 1000 | 
68 | OB(O)c1cc(F)c(Oc2cccc(F)c2)c(F)c1 [II-198] | < 10 | 
69 | CCOc1c(Br)cc(F)cc1B(O)O [Compound I-9] |  | 10 to 1000

Row | SMILES | Ki [1] [nM] | Ki [2] [nM]
70 | CC1(C)OB(c2ccc(OCc3cncs3)cc2F)OC1(C)C [II-174] | < 10 | 
71 | CC(C)OC(=O)c1cccc(Oc2ccc(B(O)O)cc2)c1 [II-236] | < 10 | 
72 | COc1ccc(-c2ccc(B(O)O)cc2)cc1 [II-300] | 10 to 100 | 
73 | COc1ccc(Oc2ccc(B(O)O)cc2)cc1F [II-255] | < 10 | 
74 | OB(O)c1ccc(Oc2ccc(C(F)(F)F)c(Cl)c2)cc1 [II-256] | < 10 | 
75 | CC1(C)OB(c2ccc(OCCCCc3ccccc3)cc2)OC1(C)C [II-166] | 10 to 100 | 
76 | OB(O)c1cncc2ccccc12 [Compound I-62] |  | > 1000
77 | Cn1c(-c2ccc(B(O)O)cc2)nc2ccccc21 [II-41] | > 1000 | 
78 | OB(O)c1ccc(OCCc2ccncc2)cc1F [II-110] | < 10 | 
79 | OB(O)c1ccc(CN(c2ccccc2)c2ccccc2)cc1 [II-158] | > 1000 | 
80 | OB(O)c1ccc(Oc2cccc(F)c2)cc1F [II-12] | < 10 | 
81 | OB1OCCc2ccccc21 [Compound I-99] |  | > 1000
82 | CCCOc1c(F)c(F)c(B(O)O)c(F)c1F [Compound I-54] |  | > 1000
83 | CCCCOc1ccc(B(O)O)cc1F [Compound I-36] |  | < 10
84 | CN(C)CCNC(=O)C(Oc1ccc(B(O)O)cc1)c1ccccc1 (stereo not drawn) [II-215] | > 1000 | 
85 | Cc1cc(Oc2cccc(F)c2)ccc1B(O)O [II-209] | 10 to 100 | 
86 | C[C@H](COc1ccc(B(O)O)c(F)c1)c1ccccc1 [II-137] | < 10 | 
87 | CCc1ccc(B(O)O)cc1 [Compound I-57] |  | 10 to 1000
88 | Cc1cc(F)cc(B(O)O)c1 [Compound I-14] |  | 10 to 1000
89 | OB(O)c1ccc(-c2cccs2)cc1 [Compound I-31] |  | 10 to 100
90 | OB(O)c1ccc(OC(F)(F)F)cc1 [Compound I-204] |  | 10 to 100
